{"source": "ChEMBL document CHEMBL5512655", "about": "“Discovery of indolylacryloyl-derived oxacins as novel potential broad-spectrum antibacterial candidates” (Eur J Med Chem, 2024)", "key": {"Staphylococcus aureus [1]": {"system": "Staphylococcus aureus", "experiment": "Potency index, ratio of norfloxacin MIC to test compound MIC for antibacterial activity against Staphylococcus aureus assessed as inhibition of bacterial growth measured after 24 hrs incubation", "type": "functional"}, "Staphylococcus aureus [2]": {"system": "Staphylococcus aureus", "experiment": "Antibacterial activity against Staphylococcus aureus ATCC 25923 assessed as inhibition of bacterial growth measured after 24 hrs incubation", "type": "functional"}, "Escherichia coli [3]": {"system": "Escherichia coli", "experiment": "Induction of ROS production in Escherichia coli assessed as fluorescence intensity at 2 times of MIC by DCFH-DA (dichlorofluorescin diacetate) probe based assay", "type": "functional"}, "Staphylococcus aureus [4]": {"system": "Staphylococcus aureus", "experiment": "Induction of lipid peroxidation in methicillin-resistant Staphylococcus aureus N315 assessed as malondialdehyde (MDA) level production", "type": "functional, organism-based"}, "Enterococcus faecalis": {"system": "Enterococcus faecalis", "experiment": "Potency index, ratio of norfloxacin MIC to test compound MIC for antibacterial activity against Enterococcus faecalis assessed as inhibition of bacterial growth measured after 24 hrs incubation", "type": "functional"}, "Staphylococcus aureus [5]": {"system": "Staphylococcus aureus", "experiment": "Antibacterial activity against methicillin-resistant Staphylococcus aureus N315 assessed as inhibition of bacterial growth measured after 24 hrs incubation", "type": "functional"}, "Pseudomonas aeruginosa": {"system": "Pseudomonas aeruginosa", "experiment": "Potency index, ratio of norfloxacin MIC to test compound MIC for antibacterial activity against Pseudomonas aeruginosa assessed as inhibition of bacterial growth measured after 24 hrs incubation", "type": "functional"}, "Escherichia coli [6]": {"system": "Escherichia coli", "experiment": "Antibacterial activity against Escherichia coli ATCC 25922 assessed as inhibition of bacterial growth measured after 24 hrs incubation", "type": "functional"}, "Escherichia coli [7]": {"system": "Escherichia coli", "experiment": "Antibacterial activity against Escherichia coli assessed as inhibition of bacterial growth measured after 24 hrs incubation", "type": "functional"}, "Calf thymus DNA": {"system": "Calf thymus DNA", "experiment": "Binding affinity to calf thymus DNA assessed as hypochromism by spectroscopic analysis", "type": "nucleic-acid assay", "details": "Bos taurus"}, "Escherichia coli [8]": {"system": "Escherichia coli", "experiment": "Antibacterial activity against Escherichia coli assessed as resistance development measured after 11 generations", "type": "functional, organism-based"}, "Escherichia coli [9]": {"system": "Escherichia coli", "experiment": "Antibacterial activity against Escherichia coli assessed as resistance development by measuring compound concentration required to inhibit measured after 18 generations", "type": "functional"}, "Staphylococcus aureus [10]": {"system": "Staphylococcus aureus", "experiment": "Antibacterial activity against methicillin-resistant Staphylococcus aureus N315 assessed as resistance development by measuring compound concentration required to inhibit measured after 18 generations", "type": "functional"}, "Staphylococcus aureus [11]": {"system": "Staphylococcus aureus", "experiment": "Potency index, ratio of norfloxacin MIC to test compound MIC for antibacterial activity against Staphylococcus aureus ATCC 29213 assessed as inhibition of bacterial growth measured after 24 hrs incubation", "type": "functional"}, "Escherichia coli [12]": {"system": "Escherichia coli", "experiment": "Reduction in metabolic activity in Escherichia coli by Alamar Blue assay", "type": "functional, organism-based"}}, "note": "Activity calls are given as the source filed them. The rule behind the calls is not given here.", "data": [{"compound": "CCOC(=O)Cn1cc(/C=C(\\C#N)C(=O)N2CCN(c3cc4c(cc3F)c(=O)c(C(=O)O)cn4CC)CC2)c2ccccc21", "values": [{"measurement": "Ratio", "setting": "Staphylococcus aureus [1]", "result": 1}, {"measurement": "MIC", "setting": "Staphylococcus aureus [2]", "result": 0.25, "unit": "µg/mL"}, {"measurement": "Activity", "setting": "Escherichia coli [3]", "result": ">50", "unit": "%"}, {"measurement": "Activity", "setting": "Staphylococcus aureus [4]", "result": "Dose-Dependent Effect"}, {"measurement": "Ratio", "setting": "Enterococcus faecalis", "result": 1}, {"measurement": "MIC", "setting": "Staphylococcus aureus [5]", "result": 0.25, "unit": "µg/mL"}, {"measurement": "Ratio", "setting": "Pseudomonas aeruginosa", "result": 1}, {"measurement": "MIC", "setting": "Escherichia coli [6]", "result": 0.5, "unit": "µg/mL"}, {"measurement": "MIC", "setting": "Escherichia coli [7]", "result": 0.25, "unit": "µg/mL"}, {"measurement": "Activity", "setting": "Calf thymus DNA", "result": "Active"}, {"measurement": "Activity", "setting": "Escherichia coli [8]", "result": "inactive"}, {"measurement": "MIC", "setting": "Escherichia coli [9]", "result": 32, "unit": "µg/mL"}, {"measurement": "MIC", "setting": "Staphylococcus aureus [10]", "result": 64, "unit": "µg/mL"}, {"measurement": "Ratio", "setting": "Staphylococcus aureus [11]", "result": 1}, {"measurement": "Activity", "setting": "Escherichia coli [12]", "result": "Dose-Dependent Effect"}]}]}
